Assay results from patent publication US10456404B2, “Targeting cGMP-related phosphodiesterases to reduce cyst formation in cystic kidney disease, and related materials and methods” (Indiana University Research and Technology Corporation, priority 2015, dated 2019).
Where two headings read alike, the source gives them in different places.

Legend:
other PDEs = settings: cited from earlier work
human PDE9 = human PDE9 (Homo sapiens, UniProt O76083); settings: cited from earlier work
PDE5 = PDE5 (Homo sapiens, UniProt O76074); settings: cited from earlier work
[1] = tested on: amyloid precursor protein overexpressing transgenic mice; settings: cited from earlier work
[2] = tested on: preclinical cognition models; settings: in vivo; cited from earlier work
cGMP = settings: in vivo; cited from earlier work
PDE6 = settings: cited from earlier work
[3] = tested on: Telomerase immortalized polycystic kidney cells; assay: cyst formation by immortalized polycystic kidney cells in 3D forskolin-supplemented Matrigel culture; assay type: cell-based, human
Text: Telomerase immortalized polycystic kidney cells, as described in Herbert et al. (PLoS One (2013), 8(1): e55191; which is hereby incorporated by reference in its entirety), were used to test the effect of sildenafil citrate on renal cyst growth. Cells from polycystic kidneys removed from patients for medically indicated reasons, removed from any research program, were obtained. The cells were obtained from the pathology laboratory. Cyst tissue was microdissected from the kidneys, and cells were isolated and grown in primary culture. The cells were then immortalized using retroviral techniques well known in the art. Following confirmation of an immortal phenotype, it was established that the polycystic cyst epithelial cells formed cyst structures when grown in 3D forskolin-supplemented Matrigel culture. Immortalized polycystic kidney cells were treated with microgram dosages of sildenafil citrate of 4 μg/ml, 2 μg/ml, and 1 μg/ml. […] Matched controls were sham-treated with vehicle but no drug. […] Dosages tested were consistent with the range of serum drug levels that occur when the drug is prescribed for erectile dysfunction.

[4] = tested on: Telomerase immortalized polycystic kidney cells; assay: as above; assay type: cell-based, human; settings: for average cyst area vs vehicle sham-treated matched control: FIG. 1

Chain of human PDE9 (O76083 whole entry): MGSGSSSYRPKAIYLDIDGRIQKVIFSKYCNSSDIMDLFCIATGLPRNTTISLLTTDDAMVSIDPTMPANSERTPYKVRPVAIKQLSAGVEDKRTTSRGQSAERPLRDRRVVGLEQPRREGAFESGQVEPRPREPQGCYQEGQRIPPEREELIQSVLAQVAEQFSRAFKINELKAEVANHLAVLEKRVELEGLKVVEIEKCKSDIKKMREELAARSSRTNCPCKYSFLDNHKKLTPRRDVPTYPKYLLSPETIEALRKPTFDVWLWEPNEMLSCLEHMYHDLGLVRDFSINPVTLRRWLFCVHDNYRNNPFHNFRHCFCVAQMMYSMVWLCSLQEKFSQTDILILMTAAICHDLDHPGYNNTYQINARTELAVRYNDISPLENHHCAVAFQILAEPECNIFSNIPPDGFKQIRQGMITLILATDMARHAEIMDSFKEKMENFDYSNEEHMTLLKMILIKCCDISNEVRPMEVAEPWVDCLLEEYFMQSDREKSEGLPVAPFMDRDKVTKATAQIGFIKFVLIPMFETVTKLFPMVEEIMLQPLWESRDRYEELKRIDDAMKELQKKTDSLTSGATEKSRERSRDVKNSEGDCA

Compound: C[C@H](Cc1nc2c(cnn2-c2ccccc2Cl)c(=O)[nH]1)C(F)(F)F [BAY 73-6691, 1-(2-chlorophenyl)-6-[(2R)-3,3,3-trifluoro-2-methylpropyl]-1,5-dihydro-4H-pyrazolo[3,4-d]pyrimidine-4-one]
- activity against other PDEs (other PDEs): only moderate activity
- inhibition of human PDE9 activity in vitro (human PDE9): selectively inhibit

Compound: CCCc1nc(C)c2c(=O)[nH]c(-c3cc(S(=O)(=O)N4CCNCC4)ccc3OCC)nn12 [M1]
- PDE5 inhibition potency relative to the parent drug (PDE5; parent drug vardenafil): reduced potency

Compound: C[C@@H]1CN(Cc2ncccn2)C[C@H]1c1nc2c(cnn2C2CCOCC2)c(=O)[nH]1 [PF-04447943, 6-[(3S,4S)-4-methyl-1-(pyrimidin-2-ylmethyl)pyrrolidin-3-yl]-1-(tetrahydro-2H-pyran-4-yl)-1,5-dihydro-4H-pyrazolo[3,4-d]pyrimidin-4-one]
- decreases in dendritic spine density [1]: prevents
- memory in preclinical cognition models [2]: improves
- synaptic plasticity [2]: enhances
- cGMP in brain and cerebrospinal fluid (cGMP): elevates

Compound: CCCc1nn(C)c2c(=O)[nH]c(-c3cc(S(=O)(=O)N4CCNCC4)ccc3OCC)nc12 [UK-103,320]
- PDE5 inhibition potency relative to the parent drug (PDE5; parent drug sildenafil): approximately 50%

Compound: CCCc1nc(C)c2c(=O)nc(-c3cc(S(=O)(=O)N4CCN(CC)CC4)ccc3OCC)[nH]n12 [Vardenafil, 2-[2-ethoxy-5-(4-ethylpiperazin-1-yl)sulfonylphenyl]-5-methyl-7-propyl-1H-imidazo[5,1-f][1,2,4]triazin-4-one]
- PDE6 inhibition (PDE6): potent PDE6 inhibitor

Compound: CCCOc1ccccc1-c1nc2[nH][nH]nc-2c(=O)n1 [Zaprinast, 5-(2-propoxyphenyl)-2,3-dihydrotriazolo[4,5-d]pyrimidin-7-one]
- PDE6 versus PDE5 inhibition potency (PDE6): inhibit PDE6 more potently than PDE5

Compound: CCCc1nn(C)c2c(=O)[nH]c(-c3cc(S(=O)(=O)N4CCN(C)CC4)ccc3OCC)nc12.O=C(O)CC(O)(CC(=O)O)C(=O)O [sildenafil citrate, 1-[[3-(6,7-dihydro-1-methyl-7-oxo-3-propyl-1H-pyrazolo[4,3-d]pyrimidin-5-yl)-4-ethoxyphenyl]sulfonyl]-4-methylpiperazine citrate]
- Average cyst size compared to control ([3]; 1 μg/ml, p<0.01): significantly decreased
- average cyst area vs vehicle sham-treated matched control ([3]; 1000 ng/ml, p<0.01, FIG. 1): significantly reduced
- Average cyst size compared to control ([3]; 2 μg/ml, p<0.01): significantly decreased
- Average cyst size compared to control ([3]; 4 μg/ml, p<1 E−6): significantly decreased
- average cyst area vs vehicle sham-treated matched control ([4]; 250 ng/ml, p<1.05 E−8): significantly reduced
- average cyst area vs vehicle sham-treated matched control ([4]; 500 ng/ml, p<0.01): significantly reduced
- dose response of cyst area reduction ([4]; 250, 500, 1000 ng/ml): No dose response
- large cyst formation (cyst structures of greater than 150μ^2), frequency distribution ([4]; 250, 500, 1000 ng/ml, FIG. 2): completely inhibited

Compound: CCCc1nn(C)c2c(=O)[nH]c(-c3cc(S(=O)(=O)N4CCN(C)CC4)ccc3OCC)nc12 [sildenafil, 5[2-ethoxy-5-(4-methyl-1-piperazinyl-sulphonyl)phenyl]-1-methyl-3-n-propyl-1,6-dihydro-7H-pyrazolo[4,3-d]pyrimidin-7-one]
- large cysts in photographs ([3]; 1:250 dilution of drug in vehicle from a stock, FIG. 3B): No large cysts were observed
- large cysts in photographs ([3]; 1:500 dilution of drug in vehicle from a stock, FIG. 4B): No large cysts were observed
- large cysts in photographs ([3]; 1:1000 dilution of drug in vehicle from a stock, FIG. 5B): No large cysts were observed
